The results in this text go back to US20100056516A1 (priority 2006, published 2010).

The target of one test is HIV integrase (Human immunodeficiency virus type 1 group M subtype B, UniProt P04585). Briefly: integrase strand transfer assay (STA). The note with it: integrase strand transfer; read-out: IC50 in the STA assay. The class given is biochemical.
In a further test the test system is HXB2 virus. Briefly: microbe, parasite or virus in culture. The class given is cell-based, HIV. The note with it: Human immunodeficiency virus 1, HXB2, HeLaP4-2, read-out: antiviral IC50 (SCIA-B). The procedure:
An assay for measuring the inhibition of acute HIV infection with HeLa P4-2 cells in a single cycle infectivity assay (SCIA-A) was conducted in accordance with Joyce, J. G., et al., J. Biol. Chem., 2002, 277, 45811, Hazuda, D. J. et al., Science, 2000, 287, 646, and Kimpton, J. et al, J. Virol. 1992, 66, 2232. Infectious virus was produced by transfecting 293T cells with HIV proviral DNA in which the integrase gene was derived from a IIIB isolate and the remainder of the HIV genome was derived from the NL4-3 isolate.
This assay B for measuring the inhibition of acute HIV infection with HeLa P4-2 cells in a single cycle infectivity assay (SCIA-B) is essentially the same as Assay A described above, except that HXB2 virus is employed instead of the IIIb isolate.

By IC50 is commonly meant the point on the concentration scale where inhibition reaches its midpoint. For `CN1C(=O)c2c(c3cccnc3n(O)c2=O)NC1c1cccc(CN2CCOCC2)c1` (stereo not shown) [Example 219, 6-Hydroxy-3-methyl-2-[3-(morpholin-4-ylmethyl)phenyl]-2,3-dihydropyrimido[5,4-c]-1,8-naphthyridine-4,5(1H, 6H)dione], the IC50 at HIV integrase was below 50 µM; in the test on HXB2 virus, below 100 µM.

As to `N#Cc1ccc(-c2c(O)c3cccnc3n(O)c2=O)cc1` [Example 45, 4-(1,4-dihydroxy-2-oxo-1,2-dihydro-1,8-naphthyridin-3-yl)benzonitrile], the 50% inhibitory concentration (IC50) was below 50 µM at HIV integrase and below 100 µM in the test on HXB2 virus.

Consider `CN(C)CCCN1CCN(Cc2cccc(-c3cc(=O)n(O)c4ncccc34)c2)CC1` [Example 212, 4-[3-({4-[3-(dimethylamino)propyl]-1-piperazinyl}methyl)phenyl]-1-hydroxy-1,8-naphthyridin-2(1H-one)], for which the IC50 was below 50 µM on HIV integrase and below 100 µM with HXB2 virus.

`CC(Br)Cc1cnc2c(c1)c(O)c(-c1ccccc1)c(=O)n2O` (stereo not shown) [Example 74, 6-(2-Bromopropyl)-1,4-dihydroxy-3-phenyl-1,8-naphthyridin-2(1H)-one]: the concentration for half-maximal inhibition (IC50) on HIV integrase is below 50 µM; in the test on HXB2 virus, below 100 µM.

Turning to `CCOC(=O)c1c(-c2cc(CCc3ccccc3F)cc(-c3ccc(CN)cc3)c2)c2cccnc2n(O)c1=O` [Example 263, ethyl 4-[4′-aminomethyl-5-(2-fluorophenethyl)biphenyl-3-yl]1-hydroxy-2-oxo-1,2-dihydro-1,8-naphthyridine-3-carboxylate], the IC50 is below 50 µM at HIV integrase and below 100 µM in the test with HXB2 virus.

`O=c1cc(-c2cccc(-c3cccc(CNCc4ccccc4)c3)c2)c2cccnc2n1O` [Example 205, 4-{3′-[(benzylamino)methyl]biphenyl-3-yl}-1-hydroxy-1,8-naphthyridin-2(H)-one]: the 50% inhibitory concentration (IC50) was below 50 µM on HIV integrase and below 100 µM with HXB2 virus.

On to `CS(=O)(=O)Nc1cccc(-c2cc(=O)n(O)c3ncccc23)c1` [Example 175, N-[3-(1-hydroxy-2-oxo-1,2-dihydro-1,8-naphthyridin-4-yl)phenyl]methanesulfo-namide], for which the IC50 was below 50 µM on HIV integrase and below 100 µM in the test on HXB2 virus.

On to `COc1cccc(CNc2cc(=O)n(O)c3ncccc23)c1` [Example 145, 1-hydroxy-4-[(3-methoxybenzyl)amino]-1,8-naphthyridin-2(1H-one)], for which the IC50 on HIV integrase was below 50 µM; with HXB2 virus, below 100 µM.

Consider `NCc1cccc(-c2cccc(-c3cc(=O)n(O)c4ncccc34)c2)c1` [Example 204, 4-[3′-(aminomethyl)biphenyl-3-yl]-1-hydroxy-1,8-naphthyridin-2(1H)-one], for which the IC50 is below 50 µM at HIV integrase and below 100 µM with HXB2 virus.

In the case of `CCc1cnc2c(c1)c(O)c(-c1ccccc1)c(=O)n2O` [Example 73, 6-Ethyl-1,4-dihydroxy-3-phenyl-1,8-naphthyridin-2(1H)-one], the 50% inhibitory concentration (IC50) was below 50 µM at HIV integrase and below 100 µM with HXB2 virus.

On to `O=c1cc(-c2ccc(-c3ccn[nH]3)cc2)c2cccnc2n1O` [Example 188, 1-hydroxy-4-[4-(1H-pyrazol-5-yl)phenyl]-1,8-naphthyridin-2(1H)-one], for which the half-inhibitory concentration (IC50) is below 50 µM at HIV integrase and below 100 µM in the test on HXB2 virus.

As to `COC(=O)c1ccc2c(c1)CN(c1cc(=O)n(O)c3ncccc13)CC2` [Example 122, 4-[7-(methoxycarbonyl)-3,4-dihydroisoquinolin-2(1H)-yl]-1-hydroxy-1,8-naphthyridin-2(1H)-one], the results for the IC50 on HIV integrase and with HXB2 virus were below 50 µM and below 100 µM, respectively.

Turning to `O=c1cc(Nc2ccccc2N2CCCCC2)c2cccnc2n1O` [Example 139, 1-hydroxy-4-{[2-(1-piperidinyl)pheny]amino}-1,8-naphthyridin-2(1H-one)], the half-inhibitory concentration (IC50) at HIV integrase is below 50 µM; with HXB2 virus, below 100 µM.

As to `CCOC(=O)c1c(O)c2c(Cc3cccc(-c4cccc(CN)c4)c3)ccnc2n(O)c1=O` [Example 249, ethyl 5-{[3′-(aminomethyl)biphenyl-3-yl]methyl}-1,4-dihydroxy-2-oxo-1,2-dihydro-1,8-naphthyridine-3-carboxylate], the values for the IC50 on HIV integrase and with HXB2 virus were below 50 µM and below 100 µM, respectively.

For the molecule `CC(c1ccccc1)N1CCN(Cc2cccc(-c3cc(=O)n(O)c4ncccc34)c2)CC1` (stereo not shown) [Example 210, 1-hydroxy-4-(3-{[4-(1-phenylethyl)-1-piperazinyl]methyl}phenyl)-1,8-naphthyridin-2(1H-one)], the IC50 on HIV integrase is below 50 µM; with HXB2 virus it was below 100 µM.

With `CNC(=O)c1c(N)c2cccnc2n(O)c1=O` [Example 221, 4-Amino-1-hydroxy-N-methyl-2-oxo-1,2-dihydro-1,8-naphthyridine-3-carboxamide], the IC50 on HIV integrase is below 50 µM; in the test with HXB2 virus, below 100 µM.

`O=C(NCc1ccccc1)c1c(O)c2cccnc2n(O)c1=O` [Example 19, N-benzyl-1,4-dihydroxy-2-oxo-1,2-dihydro-1,8-naphthyridine-3-carboxamide]: the results for the IC50 at HIV integrase and with HXB2 virus were below 50 µM and below 100 µM, respectively.

For the molecule `O=c1c2ccccc2c2cccnc2n1O` [Example 265, 5-Hydroxybenzo[c]-1,8-naphthyridin-6(5B)-one], the 50% inhibitory concentration (IC50) at HIV integrase is below 50 µM; in the test with HXB2 virus it was below 100 µM.

Regarding `O=c1cc(-c2ccc(NCCN3CCOCC3)nc2)c2cccnc2n1O` [Example 200, 1-hydroxy-4-{6-[(2-morpholin-4-ylethyl)amino]pyridin-3-yl}-1,8-naphthyridin-2(1H)-one], the IC50 at HIV integrase was below 50 µM; with HXB2 virus it was below 100 µM.

As to `O=c1c(C2CCCC2)c(O)c2cccnc2n1O` [Example 41, 3-Cyclopentyl-1,4-dihydroxy-1,8-naphthyridin-2(1H)-one], the IC50 on HIV integrase is below 50 µM; in the test on HXB2 virus, below 100 µM.

With `Nc1cccc(-c2cnc3c(c2)c(O)cc(=O)n3O)c1` [Example 68, 6-(3-Aminophenyl)-1,4-dihydroxy-1,8-naphthyridin-2(1H)-one], the IC50 at HIV integrase was below 50 µM; with HXB2 virus, below 100 µM.

In the case of `O=c1cc(-c2cccc(CN3CCN(C(c4ccccc4)c4ccc(Cl)cc4)CC3)c2)c2cccnc2n1O` (stereo not shown) [Example 207], the IC50 at HIV integrase is below 50 µM; in the test on HXB2 virus it was below 100 µM.

For the molecule `Cc1cc(C)n(-c2cccc(-c3cc(=O)n(O)c4ncccc34)c2)n1` [Example 176], the IC50 at HIV integrase was below 50 µM; with HXB2 virus, below 100 µM.

With `CCOC(=O)c1c(O)c2cc(C(=O)NCc3ccccc3OC)cnc2n(O)c1=O` [Example 79, Ethyl 1,4-dihydroxy-6-{[2-methoxybenzyl)amino] carbonyl}-2-oxo-1,2-dihydro-1,8-naphthyridine-3-carboxylate], the results for the IC50 on HIV integrase and with HXB2 virus were below 50 µM and below 100 µM, respectively.

Take `O=C(c1c(O)c2cccnc2n(O)c1=O)N1CCCCC1` [Example 8, 1,4-Dihydroxy-3-(piperidin-1-ylcarbonyl)-1,8-naphthyridin-2(1H)-one]: the IC50 is below 50 µM at HIV integrase and below 100 µM in the test with HXB2 virus.

With `O=c1cc(NCc2ccccc2Cl)c2cccnc2n1O` [Example 141, 4-[(2-chlorobenzyl)amino]-1-hydroxy-1,8-naphthyridin-2(1H-one)], the 50% inhibitory concentration (IC50) is below 50 µM on HIV integrase and below 100 µM with HXB2 virus.

Consider `O=c1cc(N2CCN(c3ccccc3)CC2)c2cccnc2n1O` [Example 131, 1-hydroxy-4-(4-phenylpiperazin-1-yl)-1,8-naphthyridin-2(1H)-one], for which the IC50 on HIV integrase was below 50 µM; in the test on HXB2 virus it was below 100 µM.

For `CC(NC(=O)c1c(O)c2cccnc2n(O)c1=O)c1ccccc1` (stereo not shown) [Example 23, 1,4-Dihydroxy-2-oxo-N-(1-phenylethyl)-1,2-dihydro-1,8-naphthyridine-3-carboxamide], the 50% inhibitory concentration (IC50) at HIV integrase is below 50 µM; with HXB2 virus it was below 100 µM.

With `O=c1cc(NC2CCN(Cc3ccccc3)C2)c2cccnc2n1O` (stereo not shown) [Example 112, 4-[(1-Benzylpyrrolidin-3-yl)amino]-1-hydroxy-1,8-naphthyridin-2(1H)-one], the IC50 at HIV integrase was below 50 µM; in the test with HXB2 virus, below 100 µM.

On to `O=c1cc(C2=Cc3ccccc3CC2)c2cccnc2n1O` [Example 246, 4-(3,4-dihydronaphthalen-2-yl)-1-hydroxy-1,8-naphthyridin-2(1H)-one], for which the IC50 was below 50 µM on HIV integrase and below 100 µM in the test with HXB2 virus.

For `O=c1c(-c2ccccc2)c(O)c2cc(-c3ccccc3)cnc2n1O` [Example 51, 1,4-Dihydroxy-3,6-diphenyl-1,8-maphthyridin-2(1H)-one], the concentration for half-maximal inhibition (IC50) at HIV integrase was below 50 µM; in the test with HXB2 virus it was below 100 µM.

For the molecule `CC(=O)Nc1cccc(-c2cc(=O)n(O)c3ncccc23)c1` [Example 194, N-[3-(1-hydroxy-2-oxo-1,2-dihydro-1,8-naphthyridin-4-yl)phenyl]acetamide], the IC50 was below 50 µM at HIV integrase and below 100 µM in the test with HXB2 virus.

Consider `CC(=O)c1c(O)c2cccnc2n(O)c1=O` [Example 93, 3-acetyl-1,4-dihydroxy-1,8-naphthyridin-2(1H)-one], for which the IC50 was above 50 µM at HIV integrase and below 100 µM in the test on HXB2 virus.

As for `CCOC(=O)c1c(CCc2ccccc2)c2cccnc2n(O)c1=O` [Example 240, ethyl 1-hydroxy-2-oxo-4-(2-phenylethyl)-1,2-dihydro-1,8-naphthyridine-3-carboxylate], the IC50 on HIV integrase was below 50 µM; in the test on HXB2 virus, below 100 µM.

`COc1ccc(-c2ccncc2)cc1-c1cc(=O)n(O)c2ncccc12` [Example 185, 1-hydroxy-4-(2-methoxy-5-pyridin-4-ylphenyl)-1,8-naphthyridin-2(1H)-one]: the 50% inhibitory concentration (IC50) on HIV integrase is below 50 µM; with HXB2 virus, below 100 µM.
